Data set [1] addresses human BRD4 first bromodomain (BDI_K57-E168) (Homo sapiens (Human), UniProt O60885). The experiment in a line: TR-FRET bromodomain binding assay, BRD4 first bromodomain.
Data set [2] deals with human BRD4 second bromodomain (BDII_E352-M457) (Homo sapiens (Human), UniProt O60885). The experiment in a line: TR-FRET bromodomain binding assay, BRD4 second bromodomain.
In data set [3] the test system is breast cancer cell line MX-1. The experiment in a line: MX-1 cell line proliferation assay. It counts as cell-based, human. The note with it: Homo sapiens, MX1, 72 h; MX-1 cells, 3-day proliferation, Cell Titer Glo; read-out: Cellular proliferation: EC50.
Data set [4] in a line: Human liver microsome stability assay. It counts as in vitro ADME. The note with it: both sexes, human, microsomes, pH 7.4.
A short description of data set [5]: Rat liver microsome stability assay. Format: in vitro ADME. The conditions noted are these: rat liver microsomes (male Sprague-Dawley), 0.5 μM test compound, pH 7.4, 37° C.; for half-life at 0.5 μM: 0.25 mg/mL microsomal protein, read-out: Stability in rat liver microsomes (t1/2 in minutes).
Data set [6] can be described thus: Mouse liver microsome stability assay. It counts as in vitro ADME. The note with it: male, CD1, mouse, microsomes, pH 7.4.

Structures are written as SMILES.

This is an account of results in patent US9296741B2, “Bromodomain inhibitors” (priority 2012, dated 2016).

Turning to `Cn1cc(-c2cc(NS(C)(=O)=O)ccc2OC2CCOC2)c2cc[nH]c2c1=O` (stereo not drawn) [Example 31, N-[3-(6-methyl-7-oxo-6,7-dihydro-1H-pyrrolo[2,3-c]pyridin-4-yl)-4-(tetrahydrofuran-3-yloxy)phenyl]methanesulfonamide], the results for the Ki in data set [1] and in data set [2] were 1.8 nM and 13.4 nM, respectively. The EC50 in data set [3] is 39.8 nM. The results for the half-life at 0.5 μM in data set [4], in data set [5] and in data set [6] were 56 min, above 120 min and 19 min, respectively.
On to `CCNC(=O)c1cc2c(-c3cc(S(C)(=O)=O)ccc3Oc3ccc(F)cc3F)cn(C)c(=O)c2[nH]1` [Example 253, 4-[2-(2,4-difluorophenoxy)-5-(methylsulfonyl)phenyl]-N-ethyl-6-methyl-7-oxo-6,7-dihydro-1 H-pyrrolo[2,3-c]pyridine-2-carboxamide], for which the Ki stood at 20.4 nM in data set [1] and 1.2 nM in data set [2]. Moreover, the EC50 in data set [3] is 145 nM. Moreover, the half-life at 0.5 μM in data set [4] amounted to 72 min; in data set [5] it was 110 min; in data set [6] it was 90 min.
Regarding `Cn1cc(-c2cc(S(C)(=O)=O)ccc2OC2C3CC4CC(C3)CC2C4)c2cc[nH]c2c1=O` (stereo not drawn) [Example 237, 6-methyl-4-{5-(methylsulfonyl)-2-[tricyclo[3.3.1.1^3,7]dec-2-yloxy]phenyl}-1,6-dihydro-7H-pyrrolo[2,3-c]pyridin-7-one], the Ki in data set [1] came to 3 nM; in data set [2], 3.5 nM. Besides, the EC50 in data set [3] worked out at 35 nM. The half-life at 0.5 μM in data set [4] turned out to be 3 min; in data set [5], 7 min; in data set [6] it was 2 min.
Turning to `Cn1cc(-c2cc(S(=O)(=O)C(F)(F)F)ccc2NCC2CC2)c2cc[nH]c2c1=O` [Example 244, 4-{2-[(cyclopropylmethyl)amino]-5-[(trifluoromethyl)sulfonyl]phenyl}-6-methyl-1,6-dihydro-7H-pyrrolo[2,3-c]pyridin-7-one], the values for the Ki in data set [1] and in data set [2] were 23.2 nM and 73.7 nM, respectively. The EC50 in data set [3] stood at 254 nM. Further, the half-life at 0.5 μM in data set [4] stood at 53 min; in data set [5] it was 6 min; in data set [6] it was 87 min.
As for `CCS(=O)(=O)Nc1ccc(OC2CCCOC2)c(-c2cn(C)c(=O)c3[nH]ccc23)c1` (stereo not drawn) [Example 105, N-[3-(6-methyl-7-oxo-6,7-dihydro-1H-pyrrolo[2,3-c]pyridin-4-yl)-4-(tetrahydro-2H-pyran-3-yloxy)phenyl]ethanesulfonamide], the Ki in data set [1] came out at 0.52 nM; in data set [2], 1.5 nM. Also, in data set [3], the EC50 was determined as 16 nM. The half-life at 0.5 μM is above 120 min in data set [4], 13 min in data set [5] and 7 min in data set [6].
With `Cn1cc(-c2cc(NS(C)(=O)=O)ccc2OC2CCCCC2)c2cc[nH]c2c1=O` [Example 57, N-[4-(cyclohexyloxy)-3-(6-methyl-7-oxo-6,7-dihydro-1H-pyrrolo[2,3-c]pyridin-4-yl)phenyl]methanesulfonamide], the Ki was found to be 0.88 nM in data set [1] and 2 nM in data set [2]. In addition, the EC50 in data set [3] came to 13.8 nM. Also, the half-life at 0.5 μM in data set [4] is 13 min; in data set [5], 6 min; in data set [6] it was 5 min.
Turning to `Cn1cc(-c2cc(NS(C)(=O)=O)ccc2OCc2ccccc2)c2cc[nH]c2c1=O` [Example 63, N-[4-(benzyloxy)-3-(6-methyl-7-oxo-6,7-dihydro-1H-pyrrolo[2,3-c]pyridin-4-yl)phenyl]methanesulfonamide], the Ki in data set [1] turned out to be 18 nM; in data set [2], 42.7 nM. Further, the EC50 in data set [3] was determined as 105 nM. Also, the half-life at 0.5 μM in data set [4] worked out at 39 min; in data set [5], 13 min; in data set [6] it was 18 min.
Turning to `Cn1nc(-c2ccccc2Oc2ccccc2)c2cc[nH]c2c1=O` [Example 82, 6-methyl-4-(2-phenoxyphenyl)-1,6-dihydro-7H-pyrrolo[2,3-d]pyridazin-7-one], the values for the Ki in data set [1] and in data set [2] were 519 nM and 183 nM, respectively. Also, the EC50 in data set [3] came to 767 nM. The half-life at 0.5 μM in data set [4] came to 19 min; in data set [5], 2 min; in data set [6], 2 min.
For `CCCS(=O)(=O)Nc1ccc(Oc2ccc(F)cc2F)c(-c2cn(C)c(=O)c3[nH]ccc23)c1` [Example 115, N-[4-(2,4-difluorophenoxy)-3-(6-methyl-7-oxo-6,7-dihydro-1H-pyrrolo[2,3-c]pyridin-4-yl)phenyl]propane-1-sulfonamide], the Ki was 67.1 nM in data set [1] and 26.9 nM in data set [2]. Further, the EC50 in data set [3] came out at 55 nM. Also, the half-life at 0.5 μM in data set [4] was 41 min; in data set [5], 38 min; in data set [6] it was 55 min.
For `Cn1cc(-c2cc(S(C)(=O)=O)ccc2OCCN2CCOCC2)c2cc[nH]c2c1=O` [Example 227, 6-methyl-4-{5-(methylsulfonyl)-2-[2-(morpholin-4-yl)ethoxy]phenyl}-1,6-dihydro-7H-pyrrolo[2,3-c]pyridin-7-one], the figures for the Ki in data set [1] and in data set [2] were 73.9 nM and 211 nM, respectively. For the same compound, the EC50 in data set [3] is 658 nM. Moreover, the figures for the half-life at 0.5 μM in data set [4], in data set [5] and in data set [6] were 50 min, 70 min and above 120 min, respectively.
Consider `CCOC(=O)c1cc2c(-c3cc(NS(C)(=O)=O)ccc3Oc3ccccc3)cn(C)c(=O)c2[nH]1` [Example 71, ethyl 6-methyl-4-{5-[(methylsulfonyl)amino]-2-phenoxyphenyl}-7-oxo-6,7-dihydro-1H-pyrrolo[2,3-c]pyridine-2-carboxylate], for which the figures for the Ki in data set [1] and in data set [2] were 0.81 nM and 1.2 nM, respectively. For the same compound, in data set [3], the EC50 came to 17.5 nM. Besides, the half-life at 0.5 μM in data set [4] amounted to 2 min; in data set [6], 6 min. For the same compound, the “Stability in rat liver microsomes (t1/2 in minutes)” value in data set [5] ([…] microsomal protein) amounted to 1 min.
`Cn1cc(-c2cc(S(C)(=O)=O)ccc2OCC2CCCCC2)c2cc[nH]c2c1=O` [Example 224, 4-[2-(cyclohexylmethoxy)-5-(methylsulfonyl)phenyl]-6-methyl-1,6-dihydro-7H-pyrrolo[2,3-c]pyridin-7-one]: the values for the Ki in data set [1] and in data set [2] were 6.9 nM and 7 nM, respectively. The EC50 in data set [3] worked out at 7.6 nM. Besides, the results for the half-life at 0.5 μM in data set [4], in data set [5] and in data set [6] were 6 min, 8 min and 5 min, respectively.
For `Cn1cc(-c2cc(S(=O)(=O)N3CCOCC3)ccc2Oc2ccc(F)cc2F)c2cc[nH]c2c1=O` [Example 293, 4-[2-(2,4-difluorophenoxy)-5-(morpholin-4-ylsulfonyl)phenyl]-6-methyl-1,6-dihydro-7H-pyrrolo[2,3-c]pyridin-7-one], the figures for the inhibition constant Ki in data set [1] and in data set [2] were 180 nM and 19.3 nM, respectively. For the same compound, the EC50 in data set [3] is 381 nM. For the same compound, the half-life at 0.5 μM amounted to 4 min in data set [4], 9 min in data set [5] and 3 min in data set [6].
As for `Cn1nc(-c2cc(N)ccc2Oc2ccc(F)cc2F)c2cc[nH]c2c1=O` [Example 148, 4-[5-amino-2-(2,4-difluorophenoxy)phenyl]-6-methyl-1,6-dihydro-7H-pyrrolo[2,3-d]pyridazin-7-one], the inhibitory constant (Ki) in data set [1] amounted to 205 nM; in data set [2], 152 nM. The EC50 in data set [3] was found to be 740 nM. Besides, the results for the half-life at 0.5 μM in data set [4], in data set [5] and in data set [6] were 58 min, 2 min and 6 min, respectively.
`CCS(=O)(=O)N1CCN(C(=O)c2ccc(Oc3ccc(F)cc3F)c(-c3cn(C)c(=O)c4[nH]ccc34)c2)CC1` [Example 137, 4-[2-(2,4-difluorophenoxy)-5-{[4-(ethylsulfonyl)piperazin-1-yl]carbonyl}phenyl]-6-methyl-1,6-dihydro-7H-pyrrolo[2,3-c]pyridin-7-one]: the Ki in data set [1] is 68.7 nM; in data set [2], 8.9 nM. For the same compound, the EC50 in data set [3] amounted to 303 nM. Also, the half-life at 0.5 μM in data set [4] was determined as 38 min; in data set [5], 31 min; in data set [6], 10 min.
Consider `CCS(=O)(=O)c1ccc(OC2CCN(C)CC2)c(-c2cn(C)c(=O)c3[nH]ccc23)c1` [Example 170, 4-{5-(ethylsulfonyl)-2-[(1-methylpiperidin-4-yl)oxy]phenyl}-6-methyl-1,6-dihydro-7H-pyrrolo[2,3-c]pyridin-7-one], for which the values for the Ki in data set [1] and in data set [2] were 22.8 nM and 94 nM, respectively. For the same compound, the EC50 in data set [3] was 332 nM. Further, the results for the half-life at 0.5 μM in data set [4], in data set [5] and in data set [6] were above 120 min, 113 min and 27 min, respectively.
As to `CNS(=O)(=O)Nc1ccc(OC2CCCOC2)c(-c2cn(C)c(=O)c3[nH]ccc23)c1` (stereo not drawn) [Example 108, N-methyl-N′-[3-(6-methyl-7-oxo-6,7-dihydro-1H-pyrrolo[2,3-c]pyridin-4-yl)-4-(tetrahydro-2H-pyran-3-yloxy)phenyl]sulfuric diamide], the results for the Ki in data set [1] and in data set [2] were 1.4 nM and 5.3 nM, respectively. Further, in data set [3], the EC50 amounted to 38 nM. Moreover, the half-life at 0.5 μM in data set [4] was 37 min; in data set [5], 33 min; in data set [6], 13 min.
On to `CCS(=O)(=O)N(CC1CCCO1)c1ccc(Oc2ccc(F)cc2F)c(-c2cn(C)c(=O)c3[nH]ccc23)c1` (stereo not drawn) [Example 345, N-[4-(2,4-difluorophenoxy)-3-(6-methyl-7-oxo-6,7-dihydro-1H-pyrrolo[2,3-c]pyridin-4-yl)phenyl]-N-(tetrahydrofuran-2-ylmethyl)ethanesulfonamide], for which the figures for the Ki in data set [1] and in data set [2] were 129 nM and 32.6 nM, respectively. Besides, the EC50 in data set [3] was determined as 479 nM. The half-life at 0.5 μM in data set [4] came to 2 min; in data set [5] it was 4 min; in data set [6], 2 min.
